Results on 42 compounds are retold here after patent US11912703B2, “6-azaindole compounds” (BRISTOL-MYERS SQUIBB COMPANY, priority 2017, dated 2024).

The target in one test is human TLR7 (Homo sapiens (Human), UniProt Q9NYK1). In words: TLR7 inhibition reporter assay (HEK-Blue SEAP). The format is cell-based. The following applies: HEK-Blue cells overexpressing human TLR7, gardiquimod 7.5 μM stimulation. A general note: A reporter such as luciferase makes a cellular process visible.
In another test the target is human TLR8 (Homo sapiens (Human), UniProt Q9NR97). Nature of the test: TLR8 inhibition reporter assay (HEK-Blue SEAP).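 Further: SEAP driven by IFN-β minimal promoter with five NF-κB and AP-1 sites, compounds tested 0.05 nM to 50 µM, 22 h incubation, inhibition relative to agonist plus DMSO wells.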
The target in the next test is human TLR9 (Homo sapiens (Human), UniProt Q9NR96). In words: TLR9 inhibition reporter assay (HEK-Blue SEAP).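 Further: SEAP driven by IFN-β minimal promoter carrying five NF-κB and AP-1 sites, 22 h at 37 °C, compounds 0.05 nM–50 µM, inhibition scaled between agonist-plus-DMSO and reference-inhibitor wells.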
Where [1] appears, read: read-out: TLR8 IC50; HEK-Blue cells overexpressing human TLR8, R848 15.9 μM stimulation, SEAP reporter.
[2] abbreviates: read-out: TLR9 IC50; HEK-Blue cells overexpressing human TLR9, ODN2006 5 nM stimulation, SEAP reporter.
[3] abbreviates: read-out: TLR8 IC50; HEK-Blue cells overexpressing human TLR8; R848 15.9 μM stimulation; SEAP reporter.
Where [4] appears, read: read-out: TLR9 IC50; HEK-Blue cells overexpressing human TLR9; ODN2006 5 nM stimulation; SEAP reporter.

Like-named read-outs stand apart in the source and are kept apart here. Where only a bound is given, the exact number is not on record here.

Chain of human TLR7 (Q9NYK1 27-1049): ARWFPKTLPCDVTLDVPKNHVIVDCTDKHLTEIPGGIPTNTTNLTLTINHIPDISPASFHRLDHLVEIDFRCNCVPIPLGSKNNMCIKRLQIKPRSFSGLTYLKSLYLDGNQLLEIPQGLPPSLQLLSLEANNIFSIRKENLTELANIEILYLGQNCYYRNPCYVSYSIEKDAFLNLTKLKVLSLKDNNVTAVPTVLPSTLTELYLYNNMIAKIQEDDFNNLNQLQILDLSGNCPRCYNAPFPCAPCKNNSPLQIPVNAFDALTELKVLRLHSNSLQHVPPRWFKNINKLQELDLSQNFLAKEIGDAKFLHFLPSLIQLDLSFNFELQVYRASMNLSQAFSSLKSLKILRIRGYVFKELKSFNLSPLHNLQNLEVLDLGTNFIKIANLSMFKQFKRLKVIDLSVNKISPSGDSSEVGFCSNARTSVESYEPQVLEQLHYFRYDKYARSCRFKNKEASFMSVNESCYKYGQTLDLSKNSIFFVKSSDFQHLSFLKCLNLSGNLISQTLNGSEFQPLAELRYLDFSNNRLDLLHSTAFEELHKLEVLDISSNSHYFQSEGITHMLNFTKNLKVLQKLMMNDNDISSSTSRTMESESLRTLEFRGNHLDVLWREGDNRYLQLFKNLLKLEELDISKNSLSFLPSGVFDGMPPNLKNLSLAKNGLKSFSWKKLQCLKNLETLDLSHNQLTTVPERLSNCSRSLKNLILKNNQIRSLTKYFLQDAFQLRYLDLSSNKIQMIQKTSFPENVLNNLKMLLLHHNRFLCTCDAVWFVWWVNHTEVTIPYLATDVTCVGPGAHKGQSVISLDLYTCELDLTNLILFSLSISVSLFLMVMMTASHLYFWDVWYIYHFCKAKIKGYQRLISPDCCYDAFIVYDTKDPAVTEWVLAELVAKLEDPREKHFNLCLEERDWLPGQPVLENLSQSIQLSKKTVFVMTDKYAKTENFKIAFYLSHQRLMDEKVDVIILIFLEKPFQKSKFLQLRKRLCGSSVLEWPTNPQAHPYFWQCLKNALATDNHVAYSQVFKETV
Chain of human TLR8 (Q9NR97 27-1041): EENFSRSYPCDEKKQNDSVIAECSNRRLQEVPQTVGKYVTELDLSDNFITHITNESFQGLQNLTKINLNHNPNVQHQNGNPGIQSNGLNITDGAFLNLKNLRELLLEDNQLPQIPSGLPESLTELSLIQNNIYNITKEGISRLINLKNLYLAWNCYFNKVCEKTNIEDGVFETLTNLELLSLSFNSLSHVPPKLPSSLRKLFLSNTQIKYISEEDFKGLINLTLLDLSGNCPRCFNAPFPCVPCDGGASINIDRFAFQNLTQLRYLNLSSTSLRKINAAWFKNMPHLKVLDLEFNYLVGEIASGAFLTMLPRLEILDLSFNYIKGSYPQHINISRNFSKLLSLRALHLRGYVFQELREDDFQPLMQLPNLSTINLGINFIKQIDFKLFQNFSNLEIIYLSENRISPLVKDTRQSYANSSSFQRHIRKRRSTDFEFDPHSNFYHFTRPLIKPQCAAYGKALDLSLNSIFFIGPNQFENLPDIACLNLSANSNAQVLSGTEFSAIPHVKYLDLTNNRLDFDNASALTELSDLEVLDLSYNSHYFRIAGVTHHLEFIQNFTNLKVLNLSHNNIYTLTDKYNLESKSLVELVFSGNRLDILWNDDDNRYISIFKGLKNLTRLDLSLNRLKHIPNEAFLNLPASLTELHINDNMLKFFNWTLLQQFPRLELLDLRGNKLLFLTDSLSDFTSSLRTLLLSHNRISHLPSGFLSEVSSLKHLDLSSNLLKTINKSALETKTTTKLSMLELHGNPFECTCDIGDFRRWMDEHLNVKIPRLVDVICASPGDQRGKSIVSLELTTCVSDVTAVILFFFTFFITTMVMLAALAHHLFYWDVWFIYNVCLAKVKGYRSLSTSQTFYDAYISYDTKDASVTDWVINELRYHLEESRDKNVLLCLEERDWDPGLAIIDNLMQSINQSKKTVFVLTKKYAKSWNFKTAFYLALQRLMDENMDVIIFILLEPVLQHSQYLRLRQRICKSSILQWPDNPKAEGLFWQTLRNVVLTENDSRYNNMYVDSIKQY
Chain of human TLR9 (Q9NR96 26-1032): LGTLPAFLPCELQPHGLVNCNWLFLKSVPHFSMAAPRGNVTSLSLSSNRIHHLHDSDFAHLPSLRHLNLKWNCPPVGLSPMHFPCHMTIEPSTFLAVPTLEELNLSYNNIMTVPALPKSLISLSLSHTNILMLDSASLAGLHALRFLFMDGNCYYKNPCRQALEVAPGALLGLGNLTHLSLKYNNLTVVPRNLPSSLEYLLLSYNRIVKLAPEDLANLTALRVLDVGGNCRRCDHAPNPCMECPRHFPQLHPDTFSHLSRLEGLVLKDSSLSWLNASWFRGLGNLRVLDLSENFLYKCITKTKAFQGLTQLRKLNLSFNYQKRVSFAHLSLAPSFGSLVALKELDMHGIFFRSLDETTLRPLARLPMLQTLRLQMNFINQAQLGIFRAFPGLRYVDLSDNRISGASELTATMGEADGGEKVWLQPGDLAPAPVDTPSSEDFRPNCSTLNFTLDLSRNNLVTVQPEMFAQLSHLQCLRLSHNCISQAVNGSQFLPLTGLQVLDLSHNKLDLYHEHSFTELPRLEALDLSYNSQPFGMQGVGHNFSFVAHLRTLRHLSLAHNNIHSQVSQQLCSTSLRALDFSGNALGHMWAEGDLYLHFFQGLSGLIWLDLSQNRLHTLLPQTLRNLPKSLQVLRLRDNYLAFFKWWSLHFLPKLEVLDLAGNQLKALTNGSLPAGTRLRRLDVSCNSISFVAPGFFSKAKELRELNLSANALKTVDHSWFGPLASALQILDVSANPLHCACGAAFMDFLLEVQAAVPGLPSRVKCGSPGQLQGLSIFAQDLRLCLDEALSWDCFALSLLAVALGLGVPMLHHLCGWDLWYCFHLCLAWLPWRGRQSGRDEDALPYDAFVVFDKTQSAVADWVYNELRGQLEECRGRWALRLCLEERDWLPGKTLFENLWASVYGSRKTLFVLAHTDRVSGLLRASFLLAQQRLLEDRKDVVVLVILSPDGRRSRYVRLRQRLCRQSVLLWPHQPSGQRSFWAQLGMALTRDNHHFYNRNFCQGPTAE

As to `Cc1cc(-c2[nH]c3cnc(C4CCC(NC5CCOCC5)CC4)c(F)c3c2C(C)C)cn2ncnc12` (centres unmarked) [Example 110], the figures for the IC50 against human TLR7, at human TLR8 (setting [1]) and on human TLR9 (setting [2]) were 2 nM, 1.3 nM and 1160 nM, respectively.
In the case of `Cc1cc(-c2[nH]c3cnc(N4CCC(N(C)CC(=O)N(C)C)CC4)c(F)c3c2C(C)C)cn2ncnc12` [Example 45], the figures for the 50% inhibitory concentration (IC50) at human TLR7, at human TLR8 (setting [1]) and on human TLR9 (setting [2]) were 2.2 nM, 1.9 nM and 2770 nM, respectively.
For `COc1cc(-c2[nH]c3cnc(N4CCN(C5CCC5)C[C@H]4C)c(F)c3c2C(C)C)cn2ncnc12` [Example 441], in that order: 4 nM, 11 nM and 7320 nM.
For the compound `COc1cc(-c2[nH]c3cnc(N4CCN(CC5CC5)C[C@H]4C)c(F)c3c2C(C)C)cn2ncnc12` [Example 442], the results for the IC50 against human TLR7, at human TLR8 (setting [1]) and at human TLR9 (setting [2]) were 2.5 nM, 7.1 nM and 7490 nM, respectively.
In the case of `Cc1c(-c2[nH]c3cnc(C4CCC(NC5CCOC5)CC4)cc3c2C(C)C)cn2ncnc2c1C` (centres unmarked) [Example 349], the IC50 was found to be 1.1 nM against human TLR7, 3.6 nM on human TLR8 (setting [1]) and 344 nM on human TLR9 (setting [2]).
Take `Cc1c(-c2[nH]c3cnc(C4CCC(NC(C)C)CC4)cc3c2C(C)C)cn2ncnc2c1C` (centres unmarked) [Example 326]: the figures for the IC50 against human TLR7, on human TLR8 (setting [1]) and on human TLR9 (setting [2]) were 14 nM, 78 nM and 1220 nM, respectively.
With `Cc1cc(-c2[nH]c3cnc(C4CCC(NC(C)C)CC4)c(F)c3c2C(C)C)cn2ncnc12` (centres unmarked) [Example 230], the IC50 against human TLR7 was determined as 0.41 nM; at human TLR8 (setting [3]), 0.77 nM; on human TLR9 (setting [4]), 1700 nM.
Turning to `Cc1c(-c2[nH]c3cnc(N4CC5(CN(CCS(C)(=O)=O)C5)C4)c(F)c3c2C(C)C)cn2ncnc2c1C` [Example 396], the 50% inhibitory concentration (IC50) against human TLR7 is 99 nM; on human TLR8 (setting [1]) it was 19 nM; at human TLR9 (setting [2]), over 50000 nM.
Consider `Cc1c(-c2[nH]c3cnc(N4CCN(C5CCOCC5)CC4)c(C)c3c2C(C)C)cn2ncnc2c1C` [Example 418], for which the IC50 came to 19 nM at human TLR7, 2.2 nM on human TLR8 (setting [1]) and 6010 nM on human TLR9 (setting [2]).
Regarding `Cc1c(-c2[nH]c3cnc(N4CCN(CC(N)=O)CC4)c(C)c3c2C(C)C)cn2ncnc2c1C` [Example 414], the IC50 is 41 nM against human TLR7, 6.2 nM at human TLR8 (setting [1]) and over 50000 nM on human TLR9 (setting [2]).
For `COCCN1CCN(c2ncc3[nH]c(-c4cn5ncnc5c(C)c4C)c(C(C)C)c3c2F)CC1` [Example 424], the results for the IC50 on human TLR7, at human TLR8 (setting [1]) and at human TLR9 (setting [2]) were 6.3 nM, 0.39 nM and 17700 nM, respectively.
On the same counts, the results for `COc1cc(-c2[nH]c3cnc(N4CCC(NCC(N)=O)CC4)cc3c2C(C)C)cn2ncnc12` [Example 345] are 11 nM, 13 nM and 712 nM.
Turning to `CCN(C)C1CCC(c2cc3c(C(C)C)c(-c4cc(OC)c5ncnn5c4)[nH]c3cn2)C1` (centres unmarked) [Example 248], the IC50 on human TLR7 came out at 5.7 nM; at human TLR8 (setting [1]), 6.8 nM; on human TLR9 (setting [2]) it was 396 nM.
For `Cc1cc(-c2[nH]c3cnc(N4CCC(NCC5(C)COC5)CC4)c(F)c3c2C(C)C)cn2ncnc12` [Example 129], in that order: 0.75 nM, 0.15 nM and 5900 nM.
`Cc1c(N2CCC(N3CCOCC3)CC2)ncc2[nH]c(-c3cc(C)c4ncnn4c3)c(C(C)C)c12` [Example 282]: the figures for the IC50 on human TLR7, at human TLR8 (setting [1]) and at human TLR9 (setting [2]) were 1.1 nM, 0.97 nM and 1070 nM, respectively.
As to `COc1cc(-c2[nH]c3cnc(N4CCC(N(C)C(C)C)CC4)c(C)c3c2C(C)C)cn2ncnc12` [Example 86], the IC50 was determined as 0.37 nM against human TLR7, 0.43 nM at human TLR8 (setting [1]) and 1130 nM on human TLR9 (setting [2]).
In the case of `COc1cc(-c2[nH]c3cnc(C4CCC(NC(C)C)CC4)cc3c2C(C)C)cn2ncnc12` (centres unmarked) [Example 315], the IC50 against human TLR7 is 7.6 nM; on human TLR8 (setting [1]), 47 nM; on human TLR9 (setting [2]), 166 nM.
In the case of `COc1cc(-c2[nH]c3cnc(C4CCN(CC5(C)COC5)CC4)c(F)c3c2C(C)C)cn2ncnc12` [Example 17], the values for the IC50 at human TLR7, at human TLR8 (setting [1]) and on human TLR9 (setting [2]) were 1.3 nM, 1.6 nM and 1860 nM, respectively.
On to `Cc1c(-c2[nH]c3cnc(C4CCC(NC5COC5)CC4)cc3c2C(C)C)cn2ncnc2c1C` (centres unmarked) [Example 334], for which the IC50 was 0.35 nM on human TLR7, 1.4 nM at human TLR8 (setting [1]) and 452 nM on human TLR9 (setting [2]).
In the case of `COc1cc(-c2[nH]c3cnc(C4CCC(NC5COC5)CC4)c(F)c3c2C(C)C)cn2ncnc12` (centres unmarked) [Example 224], the IC50 was found to be 0.4 nM at human TLR7, 0.62 nM at human TLR8 (setting [3]) and 679 nM on human TLR9 (setting [4]).
Consider `Cc1c(-c2[nH]c3cnc(C4CCC(NCC(C)(C)C)CC4)c(F)c3c2C(C)C)cn2ncnc2c1C` (centres unmarked) [Example 234], for which the IC50 at human TLR7 came to 13 nM; at human TLR8 (setting [1]) it was 2.6 nM; on human TLR8 (setting [3]), 2.6 nM; on human TLR9 (setting [2]) it was 733 nM; at human TLR9 (setting [4]), 733 nM.
As to `COc1cc(-c2[nH]c3cnc(C4CCN(CCS(C)(=O)=O)CC4)c(F)c3c2C(C)C)cn2ncnc12` [Example 14], the IC50 was found to be 3.9 nM at human TLR7, 3.4 nM at human TLR8 (setting [1]) and 13000 nM on human TLR9 (setting [2]).
As to `COc1cc(-c2[nH]c3cnc(N4CCN(C5CCN(C(C)C)CC5)CC4)c(F)c3c2C(C)C)cn2ncnc12` [Example 388], the figures for the IC50 on human TLR7, on human TLR8 (setting [1]) and at human TLR9 (setting [2]) were 2.7 nM, 0.81 nM and 1890 nM, respectively.
For the compound `COc1cc(-c2[nH]c3cnc(N4CCN(CC5(C)COC5)CC4)c(F)c3c2C(C)C)cn2ncnc12` [Example 385], the IC50 on human TLR7 was determined as 4.1 nM; on human TLR8 (setting [1]), 1.4 nM; at human TLR9 (setting [2]) it was 42100 nM.
`Cc1c(-c2[nH]c3cnc(C4CCC(NC[C@@H](F)C(C)(C)O)CC4)c(F)c3c2C(C)C)cn2ncnc2c1C` (some centres unmarked) [Example 175]: the IC50 was found to be 23 nM on human TLR7, 6.4 nM at human TLR8 (setting [1]) and 7940 nM at human TLR9 (setting [2]).
On to `Cc1c(-c2[nH]c3cnc(N4CCN(C5COC5)CC4)c(F)c3c2C(C)C)cn2ncnc2c1C` [Example 409], for which the results for the IC50 against human TLR7, at human TLR8 (setting [1]) and on human TLR9 (setting [2]) were 2.5 nM, 3.4 nM and over 50000 nM, respectively.
As for `COc1cc(-c2[nH]c3cnc(N4CCC(NC5CCOC5)CC4)c(F)c3c2C(C)C)cn2ncnc12` (centres unmarked) [Example 190], the IC50 at human TLR7 was 0.77 nM; on human TLR8 (setting [1]) it was 0.22 nM; on human TLR9 (setting [2]) it was 874 nM.
For `Cc1c(-c2[nH]c3cnc(N4CC5(CN(CC(C)C)C5)C4)c(F)c3c2C(C)C)cn2ncnc2c1C` [Example 402], in that order: 30 nM, 4.4 nM and 5970 nM.
As to `COc1cc(-c2[nH]c3cnc(N4CCN(CC(=O)N(C)C)CC4)c(F)c3c2C(C)C)cn2ncnc12` [Example 360], the values for the 50% inhibitory concentration (IC50) at human TLR7, on human TLR8 (setting [1]) and at human TLR9 (setting [2]) were 2.9 nM, 1.5 nM and 23000 nM, respectively.
Regarding `Cc1c(-c2[nH]c3cnc(C4CCN(C(C)C)CC4)cc3c2C(C)C)cn2ncnc2c1C` [Example 35], the values for the IC50 against human TLR7, at human TLR8 (setting [1]) and at human TLR9 (setting [2]) were 1.7 nM, 2.8 nM and 154 nM, respectively.
Regarding `Cc1c(-c2[nH]c3cnc(C4CCC(NC5COC5)CC4)c(F)c3c2C(C)C)cn2ncnc2c1C` (centres unmarked) [Example 267], the concentration for half-maximal inhibition (IC50) against human TLR7 came out at 6.9 nM; at human TLR8 (setting [1]), 1.9 nM; on human TLR9 (setting [2]), 16700 nM.
`Cc1cc(-c2[nH]c3cnc(C4CCC(NCC(C)(C)C)CC4)c(F)c3c2C(C)C)cn2ncnc12` (centres unmarked) [Example 48]: the IC50 at human TLR7 was 12 nM; at human TLR8 (setting [1]), 13 nM; at human TLR9 (setting [2]), 9530 nM.
Regarding `COc1cc(-c2[nH]c3cnc(N4CCC(NC5COC5)CC4)c(C)c3c2C(C)C)cn2ncnc12` [Example 137], the IC50 against human TLR7 turned out to be 0.63 nM; on human TLR8 (setting [1]) it was 0.9 nM; on human TLR9 (setting [2]), 3160 nM.
Consider `Cc1c(-c2[nH]c3cnc(N4CCN(CC5(C)COC5)CC4)c(F)c3c2C(C)C)cn2ncnc2c1C` [Example 410], for which the IC50 on human TLR7 was 15 nM; at human TLR8 (setting [1]), 1.3 nM; at human TLR9 (setting [2]), over 50000 nM.
On to `COc1cc(-c2[nH]c3cnc(N4CCC(NC5COC5)CC4)cc3c2C(C)C)cn2ncnc12` [Example 320], for which the IC50 came out at 4.4 nM against human TLR7, 2 nM on human TLR8 (setting [1]) and 3010 nM on human TLR9 (setting [2]).
With `COCCN1CCC(c2ncc3[nH]c(-c4cc(C)nc(C)c4)c(C(C)C)c3c2F)CC1` [Example 216], the IC50 against human TLR7 is 14 nM; on human TLR8 (setting [3]), 12 nM; on human TLR9 (setting [4]) it was 4650 nM.
On to `COc1cc(-c2[nH]c3cnc(N4CCC(NC(=O)CN(C)C)CC4)cc3c2C(C)C)cn2ncnc12` [Example 344], for which the half-inhibitory concentration (IC50) against human TLR7 worked out at 1.7 nM; on human TLR8 (setting [1]), 3.5 nM; on human TLR9 (setting [2]), 257 nM.
As for `Cc1cc(-c2[nH]c3cnc(C4CCN(CCS(C)(=O)=O)CC4)c(F)c3c2C(C)C)cn2ncnc12` [Example 149], the IC50 at human TLR7 was 3.6 nM; at human TLR8 (setting [1]), 5.1 nM; on human TLR9 (setting [2]) it was 13100 nM.
With `Cc1cc(-c2[nH]c3cnc(N4CCC(NC(C)C)CC4)c(F)c3c2C(C)C)cn2ncnc12` [Example 219], the IC50 came out at 0.85 nM against human TLR7, 0.56 nM at human TLR8 (setting [3]) and 1890 nM at human TLR9 (setting [4]).
Take `Cc1cc(-c2[nH]c3cnc(C4CCC(NC5COC5)CC4)c(F)c3c2C(C)C)cn2ncnc12` (centres unmarked) [Example 80]: the IC50 against human TLR7 is 0.16 nM; at human TLR8 (setting [1]) it was 0.6 nM; on human TLR9 (setting [2]), 1830 nM.
As to `COc1cc(-c2[nH]c3cnc(C4CCC(NC5COC5)CC4)cc3c2C(C)C)cn2ncnc12` (centres unmarked) [Example 308], the IC50 amounted to 7.9 nM on human TLR7, 25 nM on human TLR8 (setting [1]) and 159 nM at human TLR9 (setting [2]).
Turning to `COc1cc(-c2[nH]c3cnc(N4CCC(N(C)C5COC5)CC4)c(F)c3c2C(C)C)cn2ncnc12` [Example 104], the figures for the IC50 against human TLR7, on human TLR8 (setting [1]) and at human TLR9 (setting [2]) were 3.6 nM, 1.7 nM and 5300 nM, respectively.

A word on the IC50: it is the concentration that gives 50% inhibition.
